Data published in patent US20080235828A1 (University of Manitoba, priority 2004, published 2008).

How the values were obtained:
FCA-RRM = test: Preliminary ABA-binding assays using crude lysate from FCA-RRM; design: species or system Arabidopsis
Description: All binding assays were carried out at a final volume of 200 μL at 4° C. for 45 minutes. The mixture was then rapidly filtered through a nitrocellulose membrane, washed with 0.5× binding buffer, air dried and counted in a scintillation counter (Wallac 1414 WinSpectral v1.40). Heat denatured FCA protein was used to used determine the protein nature of the FCA and BSA was used as a control. […] […] Specific binding was calculated by taking the difference for assays with only ^3H^+-ABA (total binding) and assays that also contained 5 μM (±)-ABA added at the same time as ^3H^+-ABA (non-specific binding). Binding was represented as the number of moles of ^3H^+-ABA per mole of FCA protein.

FCA-WF protein = target: T1, FCA-WF protein (Arabidopsis thaliana, UniProt O04425, W619F); test: ABA binding assay with FCA-WF (mutated WW domain); conditions: mutation in the second W of WW domain
T1 sequence (O04425 1-747 W619F): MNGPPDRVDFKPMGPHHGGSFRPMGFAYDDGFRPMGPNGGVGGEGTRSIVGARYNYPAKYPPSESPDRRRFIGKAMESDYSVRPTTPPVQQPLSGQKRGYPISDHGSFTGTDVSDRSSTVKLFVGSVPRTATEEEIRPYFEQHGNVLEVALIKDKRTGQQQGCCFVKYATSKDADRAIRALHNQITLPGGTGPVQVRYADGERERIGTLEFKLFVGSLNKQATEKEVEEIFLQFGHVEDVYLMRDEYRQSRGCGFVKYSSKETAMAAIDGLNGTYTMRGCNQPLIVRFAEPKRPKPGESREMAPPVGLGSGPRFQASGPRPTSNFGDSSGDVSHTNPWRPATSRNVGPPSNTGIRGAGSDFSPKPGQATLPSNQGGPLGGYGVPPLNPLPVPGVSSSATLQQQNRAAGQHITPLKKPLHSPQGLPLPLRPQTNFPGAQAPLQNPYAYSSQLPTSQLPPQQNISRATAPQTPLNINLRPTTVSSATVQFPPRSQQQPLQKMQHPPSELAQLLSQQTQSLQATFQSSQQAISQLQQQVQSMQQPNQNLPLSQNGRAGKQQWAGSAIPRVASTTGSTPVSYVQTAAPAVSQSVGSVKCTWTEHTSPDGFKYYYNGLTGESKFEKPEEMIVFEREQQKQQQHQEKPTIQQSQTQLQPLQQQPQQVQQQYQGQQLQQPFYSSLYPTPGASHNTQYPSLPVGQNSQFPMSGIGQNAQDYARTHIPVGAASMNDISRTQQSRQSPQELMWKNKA
Description: (§1) The GST:FCA-WW-FY interaction mixture was incubated for 90 minutes before 1 μM ^3H^+-ABA was added and the mixture pelletted, washed, and the dual activity for [^35S]-met-FY and ^3H^+-ABA were counted as described above.
Similarly, FCA-WF protein was used and binding assays were carried out as above. […] The FCA ^3H^+-ABA binding activity in the absence of FY reached approximately 50% saturation at 15 minutes and approximately 95% saturation at 45 minutes. Each data point represents triplicate assays and error bars represent standard deviation.

FCA/FY interaction = test: GST pull-down of FCA/FY interaction in the presence of ABA; format: binding, Arabidopsis
Description: All in vitro translation and GST pull-down assays were carried out as described by supplier's protocols (Promega, Madison, Wis.) with modifications^S and as follows. For GST in vitro pull-down assays, 15 μL GST affinity resin was incubated with 250 μL FCA clear lysate, pelleted and the complex blocked and washed with IP buffer as described^S. For the determination of the amount of FCA bound to GST resin, the pellet was resuspended with 200 μL of 15 mM GSH to elute FCA and the supernatant was recovered by centrifugation. FY protein to be tested for interaction with the GST-FCA fusion protein was synthesized from a plasmid template and labeled with [^35S]-methionine using the T7 TNT coupled Transcription/Translation System (Promega). Twenty μL of FY labeled protein and 180 μL of interaction buffer (12.5 mM Tris-HCl, pH 7.3 containing 5 mM KCl, 1 mM MgCl2, and 100 mM NaCl) were used to resuspend the GST:FCA after the final wash. The protein binding/interaction reaction was carried out for 90 minutes at 4° C. with continuous gentle mixing. The newly formed complex was then washed three times with 500 μL of IP wash buffer. After the final wash, the complex was resuspended, first with 10 μL of 1 5 mM GSH to facilitate the dissociation of interacted proteins from GST resin and then 10 μL of 2×SDS-PAGE sample buffer was added to the mixture and boiled for 5 minutes for complete elution of the proteins from the agarose beads. The beads were pelleted by centrifugation and supernatant was loaded on a 12% SDS-PAGE gel. The gel was dried and exposed to Kodak X-ray film for 18 hours at −70° C. and film was developed for the detection of labelled proteins.
FCA was bound with […] for 30 minutes at which time the FCA/FY translated product was added to the incubation mixture. The interaction between FCA/FY was carried out in the presence of either (−)- or (+)-ABA in binding buffer as described above. Released proteins were separated on SDS-PAGE and labelled proteins were detected as described above. FCA-WW-FY was used as a control.

GST:FCA-WW-FY = test: ABA binding to and dissociation of pre-formed FCA-FY complex; design: species or system Arabidopsis
Description: as §1

Sequence of GST:FCA-WW-FY (O04425 591-747 limits assumed): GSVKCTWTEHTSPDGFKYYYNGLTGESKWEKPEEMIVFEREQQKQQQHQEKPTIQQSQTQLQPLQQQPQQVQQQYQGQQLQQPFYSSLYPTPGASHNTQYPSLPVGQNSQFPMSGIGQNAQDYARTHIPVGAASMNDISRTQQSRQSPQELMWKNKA

abscisic acid [ABA]
3H+-ABA binding (FCA-RRM): did not show any | 3H+-ABA binding ratio relative to non-mutated FCA-WW protein (FCA-WF protein): virtually a similar ratio | inhibition of FCA/FY interaction (FCA/FY interaction; FCA pre-bound with ABA for 30 min): significantly inhibited | FCA/FY interaction remaining (FCA/FY interaction; at 1 μM ABA): virtually no significant interaction | disruption of FCA-FY complex (displacement of FY) (GST:FCA-WW-FY): capable of disrupting the FCA-FY complex | ABA binding activity of pre-formed FCA-FY complex (GST:FCA-WW-FY; 1 μM 3H+-ABA added after 90 min FCA-FY incubation): initially low but significantly increased after 45 minutes
